This is an account of results in US20230348459A1, “PYRROLIDINE COMPOUND AND USE THEREOF” (SIMCERE PHARMACEUTICAL CO., LTD., priority 2020, published 2023).

Series [1] has as its target estrogen receptors in MCF7 cells (Homo sapiens (Human), UniProt P03372). Nature of the series: Degradation of estrogen receptors in MCF7 cells (in-cell western). The class given is cell-based. The conditions noted are these: for DC50: 24 hours treatment, read-out: ER level DC50; for Dmax: 24 hours, 0.1 µM fulvestrant = 100% degradation control, read-out: Maximum degradation rate. Here is the method:
The purpose of the experiment is to determine the degradation activity of the compounds of the present invention on endogenously expressed estrogen receptors in MCF7 cells, and to evaluate the activity of the compounds according to DC50 and maximum degradation efficiency.
MCF7 cells (ATCC, HTB-22) were cultured in DMEM (Gibco, 11995-065) complete medium containing 10% fetal bovine serum. On the first day of the experiment, MCF7 cells were inoculated in a 384-well plate at a density of 3000 cells/well using the complete medium, and cultured in a 37° C., 5% CO2 cell incubator. The compounds to be tested were dissolved in DMSO with a stock concentration of 10 mM, the solution was diluted with Echo 550 (Labcyte Inc.) and added to the cell culture plate. Each compound with the starting concentration for treatment of 100 nM was subjected to 3-fold gradient dilution with 9 concentration points. A blank control containing 0.5% DMSO was set, and double replicate wells as controls were set at each concentration point. The culture was cultured in a 37° C., 5% CO2 cell incubator for 24 hours. Paraformaldehyde was added to the cell culture medium in each cell culture well, and the final concentration of paraformaldehyde was about 3.7% to fix the cells. After the mixture was reacted for 30 minutes, the supernatant was discarded, and 50 µL of PBS was added to each well for washing once. The cells were treated with PBS containing 0.5% v/v Tween-20 for 30 minutes, and washed with PBS once. A blocking solution (PBS containing 5% BSA, 0.05% Tween-20) was added, and the mixture was incubated at room temperature for 1 hour. The blocking solution was removed, a mixture solution of primary antibodies (anti-ER mAb, Estrogen Receptor α (D8H8) Rabbit mAb, GST, # 8644S, 1 : 1000 dilution; anti-GAPDH mAb, GAPDH(D4C6R) Mouse mAb, GST, #97166S, 1 : 2000 dilution) was added, and the mixture was incubated at room temperature for 3 hours. The culture was washed with PBST (PBS containing 0.05% Tween-20) 3 times. Secondary antibodies for detection (800CW-goat anti-rabbit IgG, LI-COR, P/N: 926-32211, 1 : 1000 dilution; 680RD-goat anti-mouse IgG, LI-COR, #925-68070, 1 : 1000 dilution) were added, and the mixture was incubated at room temperature and in the dark for 45 minutes. After washing with PBST 3 times, the fluorescence signal of each well was read using Odyssey CLx, and the value of Chanel 800 (ER)/Chanel 680 (GAPDH) was calculated. The wells treated with 0.1 µM fulvestrant were used as the 100% degradation control, and the degradation rate at each concentration point was calculated. The data were analyzed and processed by XlLfit, and the degradation activity DC50 and the maximum degradation rate Imax of each compound were calculated.

In the next series the test system is MCF7 cells. Nature of the series: Inhibition of the proliferation of MCF7 cells (CellTiter-Glo). The class given is cell-based. The conditions noted are these: Homo sapiens, MCF7, 168 h; 7 days treatment; read-out: MCF-7 cell proliferation inhibition IC50. Here is the method:
The purpose of the experiment is to determine the inhibitory effect of the compounds of the present invention on the proliferation of MCF7 cells in vitro, and to evaluate the activity of the compounds according to IC50 and maximum inhibitory efficiency.
MCF7 cells (ATCC, HTB-22) were cultured in DMEM (Gibco, 11995-065) complete medium containing 10% fetal bovine serum. On the first day of the experiment, MCF7 cells were inoculated in a 384-well plate at a density of 500 cells/well using the complete medium, and cultured in a 37° C., 5% CO2 cell incubator overnight. The next day, the compounds to be tested were added for drug treatment, and the compound solution with a stock concentration of 10 mM was diluted with Echo550 (Labcyte Inc.) and transferred to each cell culture well. Each compound with the starting concentration for treatment of 100 nM in cells was subjected to 3-fold gradient dilution with 9 concentration points. A blank control containing 0.3% DMSO was set, and double replicate wells as controls were set at each concentration point. The culture was cultured in a 37° C., 5% CO2 cell incubator for 7 days, and the cell culture plate was taken out on day 8.

The subject of the next series is MCF-7 intracranial tumor. Nature of the series: Growth inhibition in MCF-7 intracranial tumor model in mice. The conditions noted are these: 250 mg/kg SC once weekly. The method, then: Animal information: NPG mice (female, 6-8 weeks, body weight: about 17-29 g) were purchased from Beijing Vitalstar Biotechnology Co., Ltd. The mice were fed in SPF environment and each cage position was individually ventilated.
Cell culture: The human breast cancer MCF-7 cell line was cultured in vitro in EMEM (cell culture medium) supplemented with 10% fetal bovine serum, 1% Pen Strep and 10 µg/ml recombinant human insulin in a 37° C., 5% CO2 incubator. Conventional digestion treatment with 0.25% trypsin-EDTA digestion solution was carried out twice weekly for passage. When the cell saturation was 80%-90%, and the number reached the requirement, the cells were collected and counted.
Cell inoculation: 15 µl/(containing 2 × 10^6) MCF-7 cell suspension was inoculated into the brain of mice using a stereotaxic apparatus, a micro-injection pump and a miniature handheld cranial drill, and the mice were subcutaneously inoculated with 17β-estradiol tablets three days before the cell inoculation. On day 8 after cell inoculation, the mice were randomized into groups for administration according to the body weight thereof, and the day of grouping was Day 0.
11 mice were in the vehicle group and 8 mice were in the administration group. Mice in all groups were continuously administered until the mice died, which were euthanized due to poor state or the end of the experiment.
The body weight of the mice was measured twice weekly, and the survival status of the mice was observed.
At the end of the experiment on Day 48, all mice were euthanized.

Chain of estrogen receptors in MCF7 cells (P03372 whole entry): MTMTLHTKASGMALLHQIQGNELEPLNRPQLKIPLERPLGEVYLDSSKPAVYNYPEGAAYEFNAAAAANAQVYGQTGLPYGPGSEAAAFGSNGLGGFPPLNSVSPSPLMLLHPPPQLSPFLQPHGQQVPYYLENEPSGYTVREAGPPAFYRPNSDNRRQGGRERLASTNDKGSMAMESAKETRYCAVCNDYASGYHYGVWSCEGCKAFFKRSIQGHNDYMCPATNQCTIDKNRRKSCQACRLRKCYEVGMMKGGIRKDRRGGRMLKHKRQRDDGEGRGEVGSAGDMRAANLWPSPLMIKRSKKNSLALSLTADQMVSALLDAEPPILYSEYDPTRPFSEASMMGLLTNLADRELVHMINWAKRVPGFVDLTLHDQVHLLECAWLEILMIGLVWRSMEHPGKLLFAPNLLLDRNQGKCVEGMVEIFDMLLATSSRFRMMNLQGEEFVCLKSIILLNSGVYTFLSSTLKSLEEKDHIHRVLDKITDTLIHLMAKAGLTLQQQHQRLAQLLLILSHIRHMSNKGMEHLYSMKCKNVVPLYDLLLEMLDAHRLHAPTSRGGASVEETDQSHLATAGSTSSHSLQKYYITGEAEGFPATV

What is called DC50 is the concentration at which degradation of the target reaches its halfway point. Consider `C[C@@H]1Cc2c([nH]c3ccccc23)[C@@H](c2c(F)cc(N[C@@H]3CN(CCCF)C[C@H]3F)cc2F)N1CC(F)(F)F` (stereo in doubt) [Example 5, trans-N-(3,5-difluoro-4-((1S,3R)-3-methyl-2-(2,2,2-trifluoroethyl)-2,3,4,9-tetrahydro-1H-pyridino[3,4-b]indol-1-yl)phenyl)-4-fluoro-1-(3-fluoropropyl)pyrrolidin-3-amine], for which, in series [1], the DC50 came out at 0.58 nM and the Dmax is 80%. Further, in the series on MCF7 cells, the IC50 was 2.57 nM.

`C[C@@H]1CN(CCCF)C[C@H]1Nc1cc(F)c([C@@H]2c3[nH]c4ccccc4c3C[C@@H](C)N2CC(F)(F)F)c(F)c1` (stereo in doubt) [Example 6, trans-N-[3,5-difluoro-4-[(1S,3R)-3-methyl-2-(2,2,2-trifluoroethyl)-1,3,4,9-tetrahydropyridino[3,4-b]indol-1-yl]phenyl]-1-(3-fluoropropyl)-4-methyl-pyrrolidin-3-amine]: in series [1], the 50% degradation concentration (DC50) was determined as 0.5 nM and the Dmax is 90%. Besides, in the series on MCF7 cells, the IC50 is 2.39 nM.

`C[C@@H]1Cc2c([nH]c3ccccc23)[C@@H](c2ccc(NC3CCN(CCCF)C3)cn2)N1CC(F)(F)F` (stereo partly drawn) [Example 1, N-(1-(3-fluoropropyl)pyrrolidin-3-yl)-6-((1S,3R)-3-methyl-2-(2,2,2-trifluoroethyl)-2,3,4,9-tetrahydro-1H-pyridino[3,4-b]indol-1-yl)pyridine-3-amine]: in series [1], the DC50 came to 0.41 nM and the Dmax turned out to be 106%. The IC50 in the series on MCF7 cells worked out at 0.58 nM.

Turning to `C[C@@H]1Cc2c([nH]c3ccccc23)[C@@H](c2ccc(N[C@@H]3CCN(CCCF)C3)cn2)N1CC(F)(F)F` [Example 2], in series [1], the DC50 was 8.5 nM and the Dmax came to 92%. For the same molecule, the IC50 in the series on MCF7 cells is 15 nM.

On to `C[C@]12CC[C@@H]3c4ccc(O)cc4C[C@@H](CCCCCCCCC[S+]([O-])CCCC(F)(F)C(F)(F)F)[C@H]3[C@@H]1CC[C@@H]2O` (some centres unmarked) [Fulvestrant, reference compound], for which, in the series on MCF-7 intracranial tumor, the “Body weight of mice” value was “continued to lose weight” and the Median survival period is reported as 29.5 days.
